Like-named read-outs stand apart in the source and are kept apart here.
Tests used:
[1] = molecular target: Phi29 (exo-) (D169A mutant) (Bacillus phage phi29, UniProt P03680, D169A)
Description: Base Reading Mix: 50 mM Tris (pH 7.5), 50 mM NaCl, 5 mM CaCl2, 0.2% BSA, 80 μg/mL glucose oxidase; 2000 U/mL Katalase; 1 mM Trolox; 0.5% glucose; 250 nM Phi29 (exo-) (D169A mutant), 500 nM non-hydrolyzable nucleotide (AF647-C6 alkyl linker-alpha-thio-dA4P nucleotide analog, labeled at the terminal phosphate with ALEXA FLUOR 647).
Commercial nanoparticles (605 ITK SAV quantum dots, Invitrogen, catalog # Q10001MP) were immobilized onto PEG/PEG-biotin coverslip surfaces at 5 pM for 4 minutes. The surface-immobilized nanoparticles were saturated with hairpin molecules via the biotin in the loop.
All the transient-binding and extension steps as well as the protocols and the imaging conditions were identical to the ones described in Example 8 above (6-Base Extension, 2-Color Sequencing, in the Presence of Calcium). In this experiment only one non-hydrolyzable-AF647-dA4P were used in all transient-binding steps.
The transient-binding reaction steps, using labeled non-hydrolyzable nucleotides steps, were conducted at room temperature and included: • 1.

Klenow (exo-) = Klenow (exo-) (Escherichia coli, UniProt P00582, D355A/E357A); settings: P2-1 primer (template nucleotide A); 200 nM each of four base-labeled nucleotides, 250 nM Klenow (exo-), 10 mM CaCl2
Description: The following procedure was conducted using a SOLID sequencing instrument (SOLiD 0025) (Applied Biosystems, Foster City, Calif.), and template/primer duplexes immobilized on SOLiD S3 clonal beads, SOLiD flowcells, and Klenow polymerase.
Seven μM of the P2 primer, in 1×SSPE (150 mM NaCl, 10 mM sodium phosphate, 1 mM EDTA), was added to a SOLiD flowcell containing beads/template immobilized on a glass slide, at 25° C., then hybridized at 75° C. for 1 minute, 70° C. for 2 minutes, 65° C. for 2 minutes, 60° C. for 2 minutes, and washed with 1× Instrumentation Buffer (AB Part No. 4389784).
The labeled nucleotides were obtained from PerkinElmer Life and Analytical Science (Boston, Mass.): Cy5-dUTP, Cy3-dCTP, FAM-dGTP, and Texas Red (TxR)-dATP (base-labeled nucleotides). The Klenow fragment polymerase was obtained from New England Biolabs (No. M0212L, Ipswich, Mass.).
The beads were washed with 3 mL of Universal Buffer (50 mM NaCl, 10 mM Tris-HCl (pH 8), 10 mM CaCl2, 2 mM DTT). And 0.2 mL of Sensing Buffer Mix (200 nM each of Cy5-dUTP, Cy3-dCTP, Fam-dGTP, and Texas Red-dATP; 250 nM Klenow (exo-) in the Universal Buffer) was injected into the flowcell and incubated for 5 minutes at room temperature. […]

| Substance | signal from transiently-bound nucleotide ([1]; Base Reading Mix containing 5 mM MnCl2 (instead of CaCl2), correct nucleotide, 500 nM) | signal from transiently-bound nucleotide ([1]; after addition of CaCl2 (approximated 5-10 mM) to the manganese reaction, without washing) | bead fluorescence after wash (Klenow (exo-)) |
| --- | --- | --- | --- |
| AF647-C6 alkyl linker-alpha-thio-dA4P nucleotide analog [alpha-thio-dA4P-AF647] | no detectable signal | detectable immediately upon addition of the calcium |  |
| Cy5-dUTP |  |  | fluoresce to a greater degree than the other dye-labeled nucleotides |
